Results as given in patent publication US20220347247A1, “USE OF CANNABINOIDS IN THE TREATMENT OF INFLAMMATION AND AGING IN THE SKIN” (priority 2021, published 2022).
“Also recorded” adds a separate entry of the source. Like-named read-outs stand apart in the source and are kept apart here.

What was measured:
IL-8 = experiment: cells; assay type: cell-based, human; details: for effect on IL-8 release, in words: PMA-stimulated keratinocytes; for % Relative inhibition of IL-8 release: PMA 0.5 μg/ml
Method: (§1) Example 1: Effects of six compounds on normal human epidermal keratinocytes The effects on normal human epidermal keratinocytes (NHEK) were measured by assessing IL-8 and PGE2 release by PMA-stimulated NHEK using specific ELISA kits.
(§2) Keratinocytes were seeded in 96-well plates and cultured for 24 hours in culture medium. […] After pre-incubation, the medium was removed and replaced by assay medium 1 containing or not (stimulated control) the compounds or the reference compound and containing the inducer (PMA tested at 0.5 μg/ml). The cells were then incubated for 24 hours. In parallel, a non-stimulated control condition was performed.
(§3) All experimental conditions were performed in n=3. At the end of incubation, the culture supernatants were collected for IL-8 and PGE2 quantifications.
(§4) IL-8 and PGE2 released in the culture supernatants were measured using specific ELISA kits according to the supplier's instructions.

PGE2 = PGE2 release by PMA-stimulated NHEK (ELISA); assay type: cell-based, human; details: for effect on PGE2 release, in words / % of relative inhibition of PGE2 release / PGE2 release, % of the control: PMA-stimulated keratinocytes; for effect on PGE2 release, in words: overall; for % of relative inhibition of PGE2 release: concentration not given; for PGE2 release, % of the control: highest concentration tested
Method: as §1, §2, §3, §4

[1] = Homo sapiens, NHEK, 24 h, read-out: % Relative inhibition of IL-8 release
[2] = Homo sapiens, NHEK, 24 h, read-out: % Relative inhibition of PGE2 release
[3] = 1 μM, NHEK, PMA 0.5 μg/ml, 24 h

**Q.** `O=C1O[C@H]([C@@H](O)CO)C(O)=C1O` [L-Ascorbic acid, reference compound] was tested. Which inhibition at 50 µg/mL (IL-8; [1]) did it give?
**A.** Its inhibition at 50 µg/mL is -10%.

**Q.** And the inhibition at 100 µg/mL (IL-8; [1])?
**A.** The inhibition at 100 µg/mL was 11%.

**Q.** And the inhibition at 200 µg/mL (IL-8; [1])?
**A.** The inhibition at 200 µg/mL was -15%.

**Q.** What about the inhibition at 50 µg/mL (PGE2; [2]) of the same molecule?
**A.** Its inhibition at 50 µg/mL is > 148%.

**Q.** And the inhibition at 100 µg/mL (PGE2; [2])?
**A.** Its inhibition at 100 µg/mL is > 160%.

**Q.** What about the inhibition at 200 µg/mL (PGE2; [2]) of the same molecule?
**A.** Its inhibition at 200 µg/mL is 127%.

**Q.** And the “effect on PGE2 release, in words” value (PGE2)?
**A.** Its value is “overall the same effect at all tested concentrations; also recorded: significantly limited PGE2 release”.

**Q.** What about the “% of relative inhibition of PGE2 release” value (PGE2) of the same molecule?
**A.** Its value is ~145%.

**Q.** Which “effect on IL-8 release, in words” value (IL-8; 0.3 μM) does the source give for `C=C(C)[C@@H]1CCC(C)=C[C@H]1c1c(O)cc(CCCCC)cc1O` [CBD, cannabidiol] here?
**A.** The value was “overstimulated IL-8 release”.

**Q.** What about the inhibition at 0.1 µM (IL-8; [1]) of the same molecule?
**A.** Its inhibition at 0.1 µM is 12%.

**Q.** And the inhibition at 0.3 µM (IL-8; [1])?
**A.** Its inhibition at 0.3 µM is -44%.

**Q.** What about the inhibition at 1 µM (IL-8; [1]) of the same molecule?
**A.** Its inhibition at 1 µM is 18%.

**Q.** And the inhibition at 0.1 µM (PGE2; Homo sapiens, 0.1 μM, NHEK, PMA 0.5 μg/ml, 24 h, read-out: % Relative inhibition of PGE2 release)?
**A.** Its inhibition at 0.1 µM is 0%.

**Q.** And the inhibition at 0.3 µM (PGE2; Homo sapiens, 0.3 μM, NHEK, PMA 0.5 μg/ml, 24 h, read-out: % Relative inhibition of PGE2 release)?
**A.** The inhibition at 0.3 µM was -59%.

**Q.** And the “effect on PGE2 release, in words” value (PGE2)?
**A.** The value was “stimulate PGE2 expression”.

**Q.** And the “PGE2 release, % of the control” value (PGE2)?
**A.** The value was 185 % of the control.

**Q.** With `C=C(C)[C@@H]1CCC(C)=C[C@H]1c1c(O)cc(CCCCC)c(C(=O)O)c1O` [CBDA, cannabidiolic acid] as the molecule, how does the inhibition at 0.03 µM (IL-8; [1]) read?
**A.** Its inhibition at 0.03 µM is 11%.

**Q.** What about the inhibition at 0.1 µM (IL-8; [1]) of the same molecule?
**A.** The inhibition at 0.1 µM was 17%.

**Q.** What about the inhibition at 0.3 µM (IL-8; [1]) of the same molecule?
**A.** The inhibition at 0.3 µM was 0%.

**Q.** What about the inhibition at 0.03 µM (PGE2; [2]) of the same molecule?
**A.** Its inhibition at 0.03 µM is -24%.

**Q.** What about the inhibition at 0.1 µM (PGE2; [2]) of the same molecule?
**A.** Its inhibition at 0.1 µM is -50%.

**Q.** And the inhibition at 0.3 µM (PGE2; [2])?
**A.** Its inhibition at 0.3 µM is -20%.

**Q.** And the “effect on PGE2 release, in words” value (PGE2)?
**A.** Its value is “did not modulate PGE2 release”.

**Q.** For `CCCCCc1cc(O)c(C/C=C(\C)CCC=C(C)C)c(O)c1` [CBG, cannabigerol], which “effect on IL-8 release, in words” value (IL-8; 3 μM) is on record?
**A.** Its value is “strongly inhibited”.

**Q.** And the inhibition at 0.3 µM (IL-8; [1])?
**A.** The inhibition at 0.3 µM was 7%.

**Q.** And the inhibition at 1 µM (IL-8; [1])?
**A.** Its inhibition at 1 µM is 20%.

**Q.** And the inhibition at 3 µM (IL-8; [1])?
**A.** Its inhibition at 3 µM is 60%.

**Q.** And the “effect on IL-8 release, in words” value (IL-8; overall)?
**A.** The value was “significantly inhibited”.

**Q.** And the inhibition at 0.3 µM (PGE2; [2])?
**A.** The inhibition at 0.3 µM was 86%.

**Q.** And the inhibition at 1 µM (PGE2; [2])?
**A.** Its inhibition at 1 µM is > 169%.

**Q.** What about the inhibition at 3 µM (PGE2; [2]) of the same molecule?
**A.** The inhibition at 3 µM was > 159%.

**Q.** What about the “effect on PGE2 release, in words” value (PGE2) of the same molecule?
**A.** The value was “significant at all tested concentrations; also recorded: significantly inhibited”.

**Q.** And the “% of relative inhibition of PGE2 release” value (PGE2)?
**A.** Its value is “about 160%”.

**Q.** Which results are given for `CCCCCc1cc(O)c(C/C=C(\C)CCC=C(C)C)c(O)c1C(=O)O` [CBGA, cannabigerolic acid]?
**A.** inhibition at 0.03 µM (IL-8; [1]): 0%; inhibition at 0.1 µM (IL-8; [1]): -7%; inhibition at 0.3 µM (IL-8; [1]): 9%; inhibition at 0.03 µM (PGE2; [2]): -17%; inhibition at 0.1 µM (PGE2; [2]): -68%; effect on PGE2 release, in words (PGE2): stimulate PGE2 expression; PGE2 release, % of the control (PGE2): 182 % of the control

**Q.** For `COc1ccc2c(c1)c(CC(=O)O)c(C)n2C(=O)c1ccc(Cl)cc1` [Indomethacin, indomethacin, reference compound], which “% Relative inhibition of PGE2 release” value (PGE2; [3]) is on record?
**A.** Its value is >169%.

**Q.** And the inhibition at 1 µM (PGE2; [2])?
**A.** Its inhibition at 1 µM is > 169%.

**Q.** Which “% Relative inhibition of IL-8 release” value (IL-8; 0.1 μM, NHEK, 24 h) does the source give for `CCCc1cc(O)c(C/C=C(\C)CCC=C(C)C)c(O)c1C(=O)O` [CBGVA, cannabigerovarinic acid] here?
**A.** Its value is 2%.

**Q.** And the “% Relative inhibition of IL-8 release” value (IL-8; 0.3 μM, NHEK, 24 h)?
**A.** The value was 11%.

**Q.** What about the “% Relative inhibition of IL-8 release” value (IL-8; 1 μM, NHEK, 24 h) of the same molecule?
**A.** Its value is 9%.

**Q.** And the “% Relative inhibition of PGE2 release” value (PGE2; 0.1 μM, NHEK, PMA 0.5 μg/ml, 24 h)?
**A.** The value was 19%.

**Q.** What about the “% Relative inhibition of PGE2 release” value (PGE2; 0.3 μM, NHEK, PMA 0.5 μg/ml, 24 h) of the same molecule?
**A.** Its value is 65%.

**Q.** And the “% Relative inhibition of PGE2 release” value (PGE2; [3])?
**A.** The value was >162%.

**Q.** What about the “effect on PGE2 release, in words” value (PGE2) of the same molecule?
**A.** Its value is “significant effect only when tested at the highest concentration; also recorded: inhibited PGE2 release”.

**Q.** And the “% of relative inhibition of PGE2 release” value (PGE2)?
**A.** The value was “about 160%”.
